According to patent US20250092065A1, “2-(INDAZOL-5-YL)-6-(PIPERIDIN-4-YL)-1,7-NAPHTHYRIDINE DERIVATIVES AND RELATED COMPOUNDS AS MODULATORS FOR SPLICING NUCLEIC ACIDS AND FOR THE TREATMENT OF PROLIFERATIVE DISEASES” (REMIX THERAPEUTICS INC., priority 2022, published 2025):
Where two headings read alike, the source gives them in different places.

Experiments:
MYB = assay: HiBiT protein abundance assay, MYB (K562 HiBiT knock-in); format: cell-based, human; conditions: HiBiT knock-in K562 cells, 24 hours, top dose 10 μM
Method in brief: (§1)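 Tagged-protein levels were measured as HiBiT/LgBiT luminescence in lysed K562 knock-in cells exposed to serially diluted compound (up to 10 μM final) for 24 hours. A four-parameter logistic regression of control-normalized signal yielded the IC50.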

HTT = assay: HiBiT protein abundance assay, HTT (K562 HiBiT knock-in); format: cell-based, human; conditions: HiBiT knock-in K562 cells, 24 hours, top dose 10 μM
Method in brief: as §1

Target C = assay: HiBiT protein abundance assay, Target C (K562 HiBiT knock-in); format: cell-based, human; conditions: HiBiT knock-in K562 cells, 24 hours, top dose 10 μM
Method in brief: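 K562 HiBiT knock-in cells (10000/well) were treated 24 h at 37° C with a 10-point 3-fold dilution series (top 10 μM final, ≤0.25% DMSO). HiBiT luminescence was read after lytic LgBiT detection. Percent response used unmodified K562 and DMSO-treated knock-in controls, and IC50 came from a four-parameter fit at 50% of untreated.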

MYB mRNA = assay: RT-qPCR splicing assay, MYB mRNA canonical (CJ) and alternative (AJ) junction; format: cell-based, human; conditions: Homo sapiens; for AC50: MYB alternative junction mRNA, read-out: MYB AJ (increase in AJ mRNA, AC50)
Method in brief: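 Canonical and alternative-exon junction isoforms were quantified by RT-qPCR in cell lysates, with ΔCt against a housekeeper (GAPDH/GUSB/PPIA), then ΔΔCt vs DMSO, converted to 2^(−ΔΔCt) and percent response. K562 or A673 cells were exposed for 24 h to 11 concentrations (3-fold, top final 10 uM).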

K562 cells = assay: Cell Titer Glo 2.0 cell viability (toxicity) assay, K562; conditions: 500 cells/well, 72 hours
[1] = MYB canonical junction mRNA, RT-qPCR, read-out: MYB CJ (decrease in CJ mRNA levels, IC50)
[2] = canonical junction qPCR panel, Table 4, read-out: MYB IC50 (decrease in CJ mRNA levels)

SMILES | IC50 (MYB) [nM] | IC50 (HTT) [nM] | IC50 (Target C) [nM] | AC50 (MYB mRNA; RT-qPCR) [nM] | IC50 (MYB mRNA; [1]) [nM] | IC50 (MYB mRNA; [2]) [nM] | Effect of Exemplary Compounds on Cell Viability, K562 (K562 cells)
C[C@H]1C[C@H](c2ccc3nc(-c4cc5cn(C)nc5c(F)c4O)ccc3n2)CCN1 (single isomer, unassigned) [Compound 356] | < 100 | < 100 | < 100 | < 100 | < 100 | < 100 | A (A represents <100 nM)
Cc1c(O)c(-c2ccc3nc(N4CC[C@H](N[C@H]5C[C@H](F)C5)C4)ccc3n2)cc2cn(C)nc12 (single isomer, unassigned) [Compound 358] | < 100 | < 100 | < 100 | < 100 | < 100 | < 100 | B (B represents 100-1000 nM)
Cn1cc2cc(-c3ccc4nc(N5CC[C@@H](N)C5)ccc4n3)c(O)c(F)c2n1 (single isomer, unassigned) [Compound 362] | < 100 | < 100 | < 100 | < 100 | < 100 | < 100 | A (A represents <100 nM)
CN[C@@H]1CCN(c2ccc3nc(-c4cc5cn(C)nc5c(C)c4O)ncc3n2)C1 (single isomer, unassigned) [Compound 368] | < 100 | 100 to 1000 | 100 to 1000 | < 100 | < 100 | < 100 | A (A represents <100 nM)
CN[C@H]1CCN(c2ccc3nc(-c4cc5cn(C)nc5c(C)c4O)ncc3n2)C1 (single isomer, unassigned) [Compound 369] | < 100 | 100 to 1000 | 100 to 1000 | 100 to 1000 | 100 to 1000 | 100 to 1000 | B (B represents 100-1000 nM)
Cc1nc2c(F)c(O)c(-c3ccc4nc(N5CC[C@H](NC6(CF)CC6)C5)ccc4n3)cc2o1 (single isomer, unassigned) [Compound 373] | < 100 | < 100 | < 100 | < 100 | < 100 | < 100 | A (A represents <100 nM)
Cc1nc2c(C)c(O)c(-c3ccc4nc(N5CC[C@H](NC6(CF)CC6)C5)ccc4n3)cc2o1 (single isomer, unassigned) [Compound 378] | < 100 | < 100 | < 100 | < 100 | < 100 | < 100 | B (B represents 100-1000 nM)
Cc1nc2c(C)c(O)c(-c3ccc4nc(N5CC[C@@H](NC6(CF)CC6)C5)ccc4n3)cc2o1 (single isomer, unassigned) [Compound 379] | < 100 | < 100 | 100 to 1000 | 100 to 1000 | 100 to 1000 | 100 to 1000 | B (B represents 100-1000 nM)
Cn1cc2cc(-c3ncc4nc(N5CC[C@@H](N)C5)ccc4n3)c(O)c(F)c2n1 (single isomer, unassigned) [Compound 380] | < 100 | < 100 | 100 to 1000 | < 100 | < 100 | < 100 | A (A represents <100 nM)
C[C@H]1C[C@@H](c2ccc3nc(-c4cc5cn(C)nc5c(F)c4O)ccc3n2)CCN1 (single isomer, unassigned) [Compound 383] | < 100 | < 100 | < 100 | < 100 | < 100 | < 100 | A (A represents <100 nM)
Cn1cc2cc(-c3ccc4nc(C5CCNC[C@H]5O)ccc4n3)c(O)cc2n1 (single isomer, unassigned) [Compound 386] | 100 to 1000 | 1000 to 10000 | 1000 to 10000 | 1000 to 10000 | 100 to 1000 | 100 to 1000 | C (C represents 1000-9999 nM)
Cn1cc2cc(-c3ccc4nc(N5CC[C@@H](NC(C)(C)C)C5)ccc4n3)c(O)c(F)c2n1 (single isomer, unassigned) [Compound 391] | < 100 | < 100 | < 100 | < 100 | < 100 | < 100 | A (A represents <100 nM)
Cn1cc2cc(-c3ccc4nc(N5CC[C@H](NC(C)(C)C)C5)ccc4n3)c(O)c(F)c2n1 (single isomer, unassigned) [Compound 392] | < 100 | < 100 | < 100 | < 100 | < 100 | < 100 | A (A represents <100 nM)
Cc1c(O)c(-c2ncc3nc([C@@H]4CCNC4)ccc3n2)cc2cn(C)nc12 (single isomer, unassigned) [Compound 398] | 100 to 1000 | 1000 to 10000 | 1000 to 10000 | 1000 to 10000 | 1000 to 10000 | 1000 to 10000 | C (C represents 1000-9999 nM)
Cc1nc2c(C)c(O)c(-c3ccc4nc(N5CC[C@@H](NC6CC6)C5)ncc4n3)cc2o1 (single isomer, unassigned) [Compound 432] | 100 to 1000 | < 100 | < 100 | 100 to 1000 | < 100 | < 100 | B (B represents 100-1000 nM)
Cc1nc2cc(O)c(-c3ccc4nc(N5CC[C@@H](NC6CC6)C5)ncc4n3)cc2o1 (single isomer, unassigned) [Compound 434] | 100 to 1000 | 100 to 1000 | < 100 | 100 to 1000 | 100 to 1000 | 100 to 1000 | B (B represents 100-1000 nM)
Cc1nc2c(C)c(O)c(-c3ccc4cc(N5CC[C@@H](NC(C)(C)C)C5)ncc4n3)cc2o1 (single isomer, unassigned) [Compound 444] | < 100 | < 100 | 100 to 1000 | 100 to 1000 | 100 to 1000 | 100 to 1000 | B (B represents 100-1000 nM)
Cc1nc2c(C)c(O)c(-c3ccc4cc(N5CC[C@H](NC(C)(C)C)C5)ncc4n3)cc2o1 (single isomer, unassigned) [Compound 445] | 100 to 1000 | 100 to 1000 | 1000 to 10000 | 1000 to 10000 | 1000 to 10000 | 1000 to 10000 | C (C represents 1000-9999 nM)
Cc1nc2cc(O)c(-c3ccc4nc(N5CC[C@@H](NC6(CF)CC6)C5)ccc4n3)cc2o1 (single isomer, unassigned) [Compound 488] | 100 to 1000 | < 100 | < 100 | < 100 | < 100 | < 100 | B (B represents 100-1000 nM)
